Data: PubChem BioAssay AID330 (DTP/NCI, 2004)
Where “and” joins values, the source holds several entries; their conditions need not be identical. Equal entries are not always repeated. Toxic doses and inconclusive results are not listed.

Test system: P388 leukemia ip, CD2F1 mice, survival T/C
Assay: NCI In Vivo Anticancer Drug Screen. Data for tumor model P388 Leukemia (intraperitoneal) in CD2F1 (CDF1) mice
Conditions: endpoint: median survival time, higher = longer survival
Summary of the method: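 Mice carrying the transplanted tumor received test compound or vehicle. Survival was recorded in each group, and the value is the treated-group measurement divided by that of the vehicle-treated control group.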

[1] = dose: 60.0 mg/kg/injection, schedule: Q01DX005 (ip), vehicle: saline with Tween-80
[2] = dose: 120.0 mg/kg/injection, schedule: Q01DX005 (ip), vehicle: saline with Tween-80
[3] = dose: 50.0 mg/kg/injection, schedule: Q01DX005 (ip), vehicle: Klucel (hydroxypropylcellulose) (HPC)
[4] = dose: 100.0 mg/kg/injection, schedule: Q01DX005 (ip), vehicle: Klucel (hydroxypropylcellulose) (HPC)
[5] = dose: 200.0 mg/kg/injection, schedule: Q01DX005 (ip), vehicle: Klucel (hydroxypropylcellulose) (HPC)
[6] = dose: 6.25 mg/kg/injection, schedule: Q01DX005 (ip), vehicle: saline with Tween-80
[7] = dose: 50.0 mg/kg/injection, schedule: Q01DX005 (ip), vehicle: saline with Tween-80
[8] = dose: 100.0 mg/kg/injection, schedule: Q04DX003 (ip), vehicle: saline
[9] = dose: 200.0 mg/kg/injection, schedule: Q04DX003 (ip), vehicle: saline
[10] = dose: 50.0 mg/kg/injection, schedule: Q01DX009 (ip), vehicle: saline with Tween-80
[11] = dose: 100.0 mg/kg/injection, schedule: Q01DX009 (ip), vehicle: saline with Tween-80
[12] = dose: 200.0 mg/kg/injection, schedule: Q01DX009 (ip), vehicle: saline with Tween-80
[13] = dose: 400.0 mg/kg/injection, schedule: Q01DX009 (ip), vehicle: saline with Tween-80
[14] = dose: 25.0 mg/kg/injection, schedule: Q01DX005 (ip), vehicle: Klucel (hydroxypropylcellulose) (HPC)
[15] = dose: 6.25 mg/kg/injection, schedule: Q01DX009 (ip), vehicle: saline
[16] = dose: 50.0 mg/kg/injection, schedule: Q01DX009 (ip), vehicle: saline
[17] = dose: 100.0 mg/kg/injection, schedule: Q01DX001 (ip), vehicle: saline with Tween-80
[18] = dose: 200.0 mg/kg/injection, schedule: Q01DX001 (ip), vehicle: saline with Tween-80
[19] = dose: 400.0 mg/kg/injection, schedule: Q01DX001 (ip), vehicle: saline with Tween-80

Compound: Cc1ccc(NC(=O)N2CC2)cc1NC(=O)N1CC1
- T/C (dose: 0.78 mg/kg/injection, schedule: Q01DX009 (ip), vehicle: Klucel (hydroxypropylcellulose) (HPC)): 112 % of control
- T/C (dose: 3.12 mg/kg/injection, schedule: Q01DX009 (ip), vehicle: Klucel (hydroxypropylcellulose) (HPC)): 154 % of control
- T/C (dose: 6.25 mg/kg/injection, schedule: Q01DX009 (ip), vehicle: Klucel (hydroxypropylcellulose) (HPC)): 107 % of control and 90 % of control

Compound: O=C1C2CCSCN2C(=O)N1c1ccccc1 (stereo not drawn)
- T/C [1]: 95 % of control
- T/C [2]: 103 % of control
- T/C (dose: 240.0 mg/kg/injection, schedule: Q01DX005 (ip), vehicle: saline with Tween-80): 95 % of control

Compound: Nc1nc(N)c2nc(SCc3ccc(Cl)cc3)c(N)nc2n1
- T/C (dose: 15.0 mg/kg/injection, schedule: Q01DX005 (ip), vehicle: Klucel (hydroxypropylcellulose) (HPC)): 88 % of control
- T/C (dose: 30.0 mg/kg/injection, schedule: Q01DX005 (ip), vehicle: Klucel (hydroxypropylcellulose) (HPC)): 88 % of control
- T/C (dose: 60.0 mg/kg/injection, schedule: Q01DX005 (ip), vehicle: Klucel (hydroxypropylcellulose) (HPC)): 103 % of control
- T/C (dose: 120.0 mg/kg/injection, schedule: Q01DX005 (ip), vehicle: Klucel (hydroxypropylcellulose) (HPC)): 88 % of control
- T/C (dose: 240.0 mg/kg/injection, schedule: Q01DX005 (ip), vehicle: Klucel (hydroxypropylcellulose) (HPC)): 94 % of control

Compound: N#CC(C(=O)O)c1ccc([N+](=O)[O-])cc1 (stereo not drawn)
- T/C [3]: 105 % of control
- T/C [4]: 96 % of control
- T/C [5]: 99 % of control

Compound: O=C1C2CC(Cl)C(SSC3CC4C(=O)N(SC(Cl)(Cl)C(Cl)Cl)C(=O)C4CC3Cl)CC2C(=O)N1SC(Cl)(Cl)C(Cl)Cl (stereo not drawn)
- T/C [6]: 108 % of control and 110 % of control
- T/C (dose: 12.5 mg/kg/injection, schedule: Q01DX005 (ip), vehicle: saline with Tween-80): 101 % of control and 107 % of control
- T/C [7]: 115 % of control

Compound: NC(C(=O)O)C(F)C(=O)O (stereo not drawn)
- T/C (dose: 10.0 mg/kg/injection, schedule: Q01DX009 (ip), vehicle: saline): 109 % of control
- T/C (dose: 20.0 mg/kg/injection, schedule: Q01DX009 (ip), vehicle: saline): 106 % of control
- T/C (dose: 40.0 mg/kg/injection, schedule: Q01DX009 (ip), vehicle: saline): 100 % of control

Compound: C#CCOC(=O)C(Cl)(Cl)Cl
- T/C [8]: 107 % of control
- T/C [9]: 115 % of control

Compound: O=C1C=C(c2ccccc2)C(c2ccccc2)C1 (stereo not drawn)
- T/C [10]: 89 % of control
- T/C [11]: 93 % of control
- T/C [12]: 93 % of control
- T/C [13]: 93 % of control

Compound: COC(=O)/C1=C\CC/C(C(=O)OC)=C\C(=O)CCC1
- T/C [14]: 101 % of control
- T/C [3]: 101 % of control
- T/C [4]: 103 % of control

Compound: Cc1c[n+]2ccccc2n1C
- T/C (dose: 1.56 mg/kg/injection, schedule: Q01DX009 (ip), vehicle: saline): 98 % of control
- T/C (dose: 3.13 mg/kg/injection, schedule: Q01DX009 (ip), vehicle: saline): 95 % of control
- T/C [15]: 89 % of control

Compound: CCCN1C(=O)CC(NC(C)=O)C1=O (stereo not drawn)
- T/C [7]: 107 % of control
- T/C (dose: 100.0 mg/kg/injection, schedule: Q01DX005 (ip), vehicle: saline with Tween-80): 107 % of control
- T/C (dose: 200.0 mg/kg/injection, schedule: Q01DX005 (ip), vehicle: saline with Tween-80): 107 % of control

Compound: CCOC(=O)C(C)(NC(=O)CN)C1CC1 (stereo not drawn)
- T/C [16]: 90 % of control
- T/C (dose: 100.0 mg/kg/injection, schedule: Q01DX009 (ip), vehicle: saline): 94 % of control
- T/C (dose: 200.0 mg/kg/injection, schedule: Q01DX009 (ip), vehicle: saline): 97 % of control

Compound: CCCC(=O)NNCN1C(=O)c2ccccc2C1=O
- T/C [3]: 89 % of control
- T/C [4]: 86 % of control
- T/C [5]: 93 % of control

Compound: O=C1OCCCCOC(=O)c2ccccc2SSc2ccccc21
- T/C [17]: 90 % of control
- T/C [18]: 99 % of control
- T/C [19]: 99 % of control

Compound: COc1cc(N(CCCl)CCCl)c(OC)cc1C=Nc1cccc(Br)c1
- T/C [15]: 113 % of control
- T/C (dose: 12.5 mg/kg/injection, schedule: Q01DX009 (ip), vehicle: suspension in saline): 116 % of control
- T/C (dose: 25.0 mg/kg/injection, schedule: Q01DX009 (ip), vehicle: saline): 167 % of control
- T/C (dose: 25.0 mg/kg/injection, schedule: Q01DX009 (ip), vehicle: suspension in saline): 124 % of control
- T/C [16]: 254 % of control
- T/C (dose: 50.0 mg/kg/injection, schedule: Q01DX009 (ip), vehicle: suspension in saline): 150 % of control

Compound: CN(C)N=Nc1ccc(C(=O)NC(Cc2ccccc2)C(=O)O)cc1 (stereo not drawn)
- T/C (dose: 12.5 mg/kg/injection, schedule: Q01DX005 (ip), vehicle: Klucel (hydroxypropylcellulose) (HPC)): 100 % of control
- T/C [14]: 101 % of control
- T/C [3]: 98 % of control and 102 % of control
- T/C [5]: 107 % of control

Compound: CCOP(=S)(N/N=C/c1ccc2ccccc2c1O)OCC
- T/C [3]: 109 % of control
- T/C [4]: 106 % of control
- T/C [5]: 95 % of control

Compound: CCCCCCCC/C=C\CCCCCCCC(=O)OCCCCCCCCCCCCCCCCC
- T/C [11]: 100 % of control
- T/C [12]: 100 % of control
- T/C [13]: 96 % of control

Compound: CC(C)N=C(NC(C)C)c1ccc(NC(=O)Nc2ccc(NC(=O)Nc3ccc(C(=NC(C)C)NC(C)C)cc3)cc2)cc1
- T/C (dose: 1.56 mg/kg/injection, schedule: Q01DX005 (ip), vehicle: saline with Tween-80): 111 % of control
- T/C (dose: 3.13 mg/kg/injection, schedule: Q01DX005 (ip), vehicle: saline with Tween-80): 108 % of control and 113 % of control
- T/C [6]: 104 % of control and 124 % of control

Compound: COc1ccccc1C1NC(c2ccccc2OC)C2CCCC1C2 (stereo not drawn)
- T/C [8]: 91 % of control
- T/C [9]: 90 % of control
- T/C (dose: 400.0 mg/kg/injection, schedule: Q04DX003 (ip), vehicle: saline): 88 % of control

Compound: CCOC(=O)CN=CC1CCC=CO1 (stereo not drawn)
- T/C (dose: 100.0 mg/kg/injection, schedule: Q04DX003 (ip), vehicle: saline with Tween-80): 100 % of control
- T/C (dose: 200.0 mg/kg/injection, schedule: Q04DX003 (ip), vehicle: saline with Tween-80): 100 % of control
- T/C (dose: 400.0 mg/kg/injection, schedule: Q04DX003 (ip), vehicle: saline with Tween-80): 100 % of control

Compound: CN(C)NP(=O)(NN(C)C)c1ccccc1
- T/C (dose: 60.0 mg/kg/injection, schedule: Q01DX005 (ip), vehicle: saline): 100 % of control
- T/C (dose: 120.0 mg/kg/injection, schedule: Q01DX005 (ip), vehicle: saline): 103 % of control
- T/C (dose: 240.0 mg/kg/injection, schedule: Q01DX005 (ip), vehicle: saline): 109 % of control

Compound: O=C(CC(O)c1ccccc1)Sc1ccccc1 (stereo not drawn)
- T/C (dose: 25.0 mg/kg/injection, schedule: Q04DX003 (ip), vehicle: Klucel (hydroxypropylcellulose) (HPC)): 100 % of control
- T/C (dose: 50.0 mg/kg/injection, schedule: Q04DX003 (ip), vehicle: Klucel (hydroxypropylcellulose) (HPC)): 100 % of control
- T/C (dose: 100.0 mg/kg/injection, schedule: Q04DX003 (ip), vehicle: Klucel (hydroxypropylcellulose) (HPC)): 95 % of control

Compound: CC(C)NC(=O)OCc1c(COC(=O)NC(C)C)c(-c2ccc(Cl)c(Cl)c2)n2c1C[C@@H](O)C2
- T/C (dose: 2.5 mg/kg/injection, schedule: Q01DX005 (ip), vehicle: Klucel (hydroxypropylcellulose) (HPC)): 120 % of control
- T/C (dose: 5.0 mg/kg/injection, schedule: Q01DX005 (ip), vehicle: Klucel (hydroxypropylcellulose) (HPC)): 120 % of control
- T/C [3]: 150 % of control
- T/C [4]: 166 % of control

Compound: CNC(=O)c1ccccc1CC1(O)CCCc2ccccc21 (stereo not drawn)
- T/C [10]: 101 % of control
- T/C [11]: 96 % of control
- T/C [12]: 96 % of control

Compound: CCOC(=O)C1C(O)CC2c3ccccc3-c3ccccc3C21 (stereo not drawn)
- T/C [1]: 87 % of control
- T/C [2]: 87 % of control

Compound: O=C1CN(/N=C/c2ccc(-c3ccc(F)cc3)o2)C(=O)N1
- T/C (dose: 50.0 mg/kg/injection, schedule: Q01DX001 (ip), vehicle: saline with Tween-80): 103 % of control
- T/C [17]: 100 % of control
- T/C [18]: 100 % of control
- T/C [19]: 100 % of control
